One data set deals with MCL-1 (Homo sapiens, UniProt Q07820). Nature of the data set: Protein-protein interaction assay MCL-1/Noxa BH3 peptide (MCL-1 assay), TR-FRET. The class given is binding. As to conditions: MBP-MCL-1 / Noxa BH3-derived peptide, median. Put shortly: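 IC50 came from a 4-parameter fit of the normalized 665/620 nm TR-FRET ratio (anti-MBP Eu-cryptate/streptavidin-XL665). Compounds (0.1 nM–20 μM, duplicates) were preincubated 10 min at 22 °C with 1 nM MBP-MCL-1 in pH 7 Tris/NaCl/KF buffer, then read after 1 h at 22 °C plus overnight at 4 °C.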
Sequence of MCL-1 (Q07820 whole entry): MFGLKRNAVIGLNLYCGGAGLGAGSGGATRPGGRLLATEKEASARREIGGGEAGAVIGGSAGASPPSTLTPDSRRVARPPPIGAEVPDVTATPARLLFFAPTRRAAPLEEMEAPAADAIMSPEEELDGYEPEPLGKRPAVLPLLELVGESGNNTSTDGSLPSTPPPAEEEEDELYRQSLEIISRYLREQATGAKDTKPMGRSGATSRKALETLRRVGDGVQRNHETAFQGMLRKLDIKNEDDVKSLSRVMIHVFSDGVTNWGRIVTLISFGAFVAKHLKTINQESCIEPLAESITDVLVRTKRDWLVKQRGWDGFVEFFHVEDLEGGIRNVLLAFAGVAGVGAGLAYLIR

Data set [1] concerns SUDHL5. The experiment in a line: Induction of caspase-3/7 activity (Caspase-Glo 3/7), SUDHL5. As to conditions: caspase-3/7 induction, SUDHL5 cells, 3 h treatment; median. The class given is cell-based. Put shortly: (§1)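 DLBCL lines SUDHL5 and SUDHL10 treated with compounds for 3 h at 37 °C; caspase-3/7 activity read by Caspase-Glo 3/7 luminescence. Medium-only background subtracted; EC50 fitted with bottom fixed at 1 and top fixed at the reference compound's maximal induction.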

Data set [2] deals with SUDHL10. The experiment in a line: Induction of caspase-3/7 activity (Caspase-Glo 3/7), SUDHL10. The class given is cell-based. As to conditions: caspase-3/7 induction, SUDHL10 cells, 3 h treatment, median. Put shortly: as §1
The subject of data set [3] is SUDHL5. The experiment in a line: Anti-proliferative effect (CellTiter-Glo, 72 h), SUDHL5. The class given is cell-based. The note with it: SUDHL5 cells, antiproliferation, 72 h incubation, median, read-out: Antiproli SUDHL5 [M] (median). A digest of the protocol:
(§2)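 72 h compound treatment, 37 °C humidified; CellTiter-Glo added, 10 min incubation, luminescence read; day 0 plate read in parallel for baseline.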
In general terms: Cellular ATP, detected with luciferase, serves as a proxy for viable cell number.

A further data set deals with A2780. The experiment in a line: Anti-proliferative effect (CellTiter-Glo, 72 h), A2780. It counts as cell-based. The note with it: A2780 cells, median, read-out: IC50 antiproliferation assay A2780 [M] (median). A digest of the protocol: as §2
Another data set relates to MV-4-11. The experiment in a line: Anti-proliferative effect (CellTiter-Glo, 72 h), MV-4-11. It counts as cell-based. The note with it: MV-4-11 cells, median, read-out: IC50 antiproliferation assay MV-4-11 [M] (median). A digest of the protocol: as §2
Data set [4] deals with SUDHL5. The experiment in a line: Induction of cytotoxicity (CellTiter-Glo, 5 h), SUDHL5. The note with it: read-out: Cytotox SUDHL5 [M] (median); SUDHL5 cells, cytotoxicity induction, CellTiter-Glo, 5 h incubation, median.
The subject of data set [5] is SUDHL10. The experiment in a line: Induction of cytotoxicity (CellTiter-Glo, 5 h), SUDHL10. As to conditions: read-out: Cytotox SUDHL10 [M] (median); SUDHL10 cells, cytotoxicity induction, CellTiter-Glo, 5 h incubation, median.

Where two headings read alike, the source gives them in different places.

On to `Cc1ccc2c(C(C)CCOc3cccc4ccccc34)c(C(=O)O)n3c2c1-c1c(C)nn(C)c1COCCCC3` (single isomer, unassigned) [Example 260, 1,3,4-trimethyl-7-[4-(naphthalen-1-yloxy)butan-2-yl]-1,10,11,12,13,15-hexahydropyrazolo[4′3′:9,10][1,6]oxazacycloundecino[8,7,6-hi]indole-8-carboxylic Acid], for which the IC50 against MCL-1 came to 0.00875 µM; in the data set with SUDHL5 [3], 3.61e-06 M; in the data set on A2780, 2.2e-05 M; in the data set with MV-4-11 (Homo sapiens, MV4-11, 72 h), 4.35e-06 M; with SUDHL5 [4], 6.3e-06 M; in the data set with SUDHL10 [5], 1.18e-05 M. The EC50 in the data set on SUDHL5 [1] stood at 10.2 µM; in the data set on SUDHL10 [2], 11.3 µM.

On to `CCc1nn(C)c2c1-c1c(C)ccc3c(CCCOc4cccc5cc(F)ccc45)c(C(=O)O)n(c13)CCCCOC2` (single isomer, unassigned) [Example 268, (−)-3-ethyl-7-{3-[(6-fluoronaphthalen-1-yl)oxy]propyl}-1,4-dimethyl-1,10,11,12,13,15-hexahydropyrazolo[4′,3′:9,10][1,6]oxazacycloundecino[8,7,6-hi]indole-8-carboxylic Acid], for which the IC50 is 0.0407 µM against MCL-1; 7.41e-06 M in the data set with SUDHL5 [3]; 2.29e-05 M with A2780; 7.46e-06 M in the data set with MV-4-11; more than 3.3e-05 M in the data set with SUDHL5 [4]; more than 3.3e-05 M in the data set with SUDHL10 [5]. Besides, the EC50 with SUDHL5 [1] and in the data set on SUDHL10 [2] was more than 33 µM throughout.

Regarding `CCc1nn(C)c2c1-c1c(C)ccc3c(C(C)CCOc4cccc5ccccc45)c(C(=O)O)n(c13)CCCCOC2` (single isomer, unassigned) [Example 272, 3-ethyl-1,4-dimethyl-7-[4-(naphthalen-1-yloxy)butan-2-yl]-1,10,11,12,13,15-hexahydropyrazolo[4′,3′:9,10][1,6]oxazacycloundecino[8,7,6-hi]indole-8-carboxylic Acid], the IC50 against MCL-1 was 0.983 µM; in the data set with SUDHL5 [3] (Homo sapiens, SU-DHL-5, 72 h) it was 2.76e-06 M; with A2780, 7.15e-06 M; in the data set with MV-4-11 (Homo sapiens, MV4-11, 72 h), 4.89e-06 M; in the data set with SUDHL5 [4] it was more than 3.3e-05 M; in the data set with SUDHL10 [5], 2.5e-05 M. Besides, the EC50 in the data set with SUDHL5 [1] was more than 33 µM; in the data set with SUDHL10 [2] (Homo sapiens, SU-DHL10, 3 h) it was 23.8 µM.

Regarding `CCc1nn(C)c2c1-c1c(C)ccc3c(C(C)CCOc4cccc5ccccc45)c(C(=O)O)n(c13)CCCCOC2` (single isomer, unassigned) [Example 273, 3-ethyl-1,4-dimethyl-7-[4-(naphthalen-1-yloxy)butan-2-yl]-1,10,11,12,13,15-hexahydropyrazolo[4′,3′:9,10][1,6]oxazacycloundecino[8,7,6-hi]indole-8-carboxylic Acid], the IC50 against MCL-1 was determined as 0.00589 µM; in the data set on SUDHL5 [3] it was 3.74e-06 M; with A2780, 4.18e-06 M; with MV-4-11, 4.53e-06 M; with SUDHL5 [4] it was 4.58e-06 M; with SUDHL10 [5], 1.62e-05 M. For the same compound, the EC50 in the data set on SUDHL5 [1] was determined as 5.37 µM; with SUDHL10 [2], 15.9 µM.

For the compound `CCc1nn(C)c2c1-c1c(C)ccc3c(C(C)CCOc4cccc5ccccc45)c(C(=O)O)n(c13)CCCCOC2` (single isomer, unassigned) [Example 274, 3-ethyl-1,4-dimethyl-7-[4-(naphthalen-1-yloxy)butan-2-yl]-1,10,11,12,13,15-hexahydropyrazolo[4′,3′:9,10][1,6]oxazacycloundecino[8,7,6-hi]indole-8-carboxylic Acid], the IC50 is 1.56 µM on MCL-1; 3.93e-06 M in the data set on SUDHL5 [3]; 1.17e-05 M in the data set on A2780; 8.02e-06 M with MV-4-11; more than 3.3e-05 M in the data set on SUDHL5 [4]; more than 3.3e-05 M in the data set with SUDHL10 [5]. The EC50 is more than 33 µM in the data set with SUDHL5 [1] and 31.7 µM with SUDHL10 [2].

Consider `CCc1nn(C)c2c1-c1c(C)ccc3c(C(C)CCOc4cccc5ccccc45)c(C(=O)O)n(c13)CCCCOC2` (single isomer, unassigned) [Example 275, 3-ethyl-1,4-dimethyl-7-[4-(naphthalen-1-yloxy)butan-2-yl]-1,10,11,12,13,15-hexahydropyrazolo[4′,3′:9,10][1,6]oxazacycloundecino[8,7,6-hi]indole-8-carboxylic Acid], for which the IC50 against MCL-1 was 3.97 µM; with SUDHL5 [3], 3.33e-06 M; in the data set with A2780, 7.02e-06 M; in the data set with MV-4-11, 4.52e-06 M; with SUDHL5 [4], more than 3.3e-05 M; in the data set with SUDHL10 [5], 2.83e-05 M. The EC50 is more than 33 µM in the data set with SUDHL5 [1] and 21.6 µM in the data set with SUDHL10 [2].

For `Cc1ccc2c(C(C)CCOc3cccc4cc(F)ccc34)c(C(=O)O)n3c2c1-c1c(nn(C)c1C)COCCCC3` (single isomer, unassigned) [Example 277, 7-{4-[(6-fluoronaphthalen-1-yl)oxy]butan-2-yl}-2,3,4-trimethyl-2,10,11,12,13,15-hexahydropyrazolo[4′3′:9,10][1,6]oxazacycloundecino[8,7,6-hi]indole-8-carboxylic Acid], the IC50 against MCL-1 is 0.0013 µM; in the data set on SUDHL5 [3], 2.05e-06 M; with A2780 (Homo sapiens, A2780, 72 h), 1.5e-05 M; in the data set on MV-4-11 (Homo sapiens, MV4-11, 72 h), 8.78e-06 M; with SUDHL5 [4], 2.1e-06 M; with SUDHL10 [5], 2.28e-06 M. The values for the EC50 in the data set with SUDHL5 [1] and in the data set on SUDHL10 [2] were 1.4 µM and 1.8 µM, respectively.

Turning to `Cc1ccc2c(C(C)CCOc3cccc4cc(F)ccc34)c(C(=O)O)n3c2c1-c1c(nn(C)c1C)COCCCC3` (single isomer, unassigned) [Example 278, 7-{4-[(6-fluoronaphthalen-1-yl)oxy]butan-2-yl}2,3,4-trimethyl-2,10,11,12,13,15-hexahydropyrazolo[4′,3′:9,10][1,6]oxazacycloundecino[8,7,6-hi]indole-8-carboxylic Acid], the IC50 against MCL-1 was 0.142 µM; in the data set with SUDHL5 [3], 1.19e-05 M; with A2780, 1.26e-05 M; in the data set on MV-4-11 it was 1.49e-05 M; in the data set on SUDHL5 [4], 2.48e-05 M; with SUDHL10 [5], more than 3.3e-05 M. Further, the EC50 with SUDHL5 [1] was 26.3 µM; with SUDHL10 [2], more than 33 µM.

As to `Cc1ccc2c(C(C)CCOc3cccc4cc(F)ccc34)c(C(=O)O)n3c2c1-c1c(nn(C)c1C)COCCCC3` (single isomer, unassigned) [Example 279, 7-{4-[(6-fluoronaphthalen-1-yl)oxy]butan-2-yl}-2,3,4-trimethyl-2,10,11,12,13,15-hexahydropyrazolo[4′,3′:9,10][1,6]oxazacycloundecino[8,7,6-hi]indole-8-carboxylic Acid], the IC50 was found to be 1.6 µM on MCL-1; 7.56e-06 M in the data set with SUDHL5 [3]; 7.5e-06 M in the data set with A2780; 1.57e-05 M with MV-4-11; 2.05e-05 M in the data set on SUDHL5 [4]; 2.94e-05 M in the data set with SUDHL10 [5]. Besides, the concentration for a half-maximal effect (EC50) in the data set on SUDHL5 [1] was found to be 25.5 µM; in the data set with SUDHL10 [2], 26.6 µM.

`Cc1ccc2c(C(C)CCOc3cccc4cc(F)ccc34)c(C(=O)O)n3c2c1-c1c(nn(C)c1C)COCCCC3` (single isomer, unassigned) [Example 280, 7-{4-[(6-fluoronaphthalen-1-yl)oxy]butan-2-yl}-2,3,4-trimethyl-2,10,11,12,13,15-hexahydropyrazolo[4′3′:9,10][1,6]oxazacycloundecino[8,7,6-hi]indole-carboxylic Acid]: the IC50 at MCL-1 was 0.194 µM; with SUDHL5 [3] it was 1.18e-05 M; with A2780 it was 8.02e-06 M; in the data set on MV-4-11, 1.11e-05 M; in the data set with SUDHL5 [4], more than 3.3e-05 M; with SUDHL10 [5] it was 3.07e-05 M. Further, the values for the EC50 with SUDHL5 [1] and with SUDHL10 [2] were more than 33 µM and 32.4 µM, respectively.

As usually defined, the EC50 is the midpoint of the concentration-response curve. A high value points to lower potency in that assay.

Source of the values: patent US10981932B2, “Macrocyclic indole derivatives” (Bayer Aktiengesellschaft, priority 2016, dated 2021).
